Data as given in patent US11559538B2, “Substituted 1,2-oxaborolan-2-ols as PDE4 inhibitors” (Pfizer Inc., priority 2018, dated 2023).
Like-named read-outs stand apart in the source and are kept apart here.

Assays:
IL-13 = assay: Cytokine assay: IL-13 release from PHA-L stimulated human PBMCs; assay type: cell-based; details: read-out: IL13 IC50
In short: (§1)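 Thawed human PBMCs (about 250,000 per well) preincubated with compound (about 10 μM down by 4-fold dilution, 0.25% DMSO), then stimulated with 3.5 μg/mL PHA-L for 48 h at 37 °C. IL-4, IL-13 and IFNγ in supernatant measured by HTRF; IC50 from four-parameter logistic fit.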

IL-4 = assay: Cytokine assay: IL-4 release from PHA-L stimulated human PBMCs; assay type: cell-based; details: read-out: IL4 IC50
In short: as §1

IFNγ = assay: Cytokine assay: IFNγ release from PHA-L stimulated human PBMCs; assay type: cell-based
In short: as §1

[1] = biological target: PDE4B (aa 152-484, Uniprot ID Q07343) (Homo sapiens (Human), UniProt Q07343); assay: PDE4 SPA assay (scintillation proximity assay); assay type: biochemical; details: read-out: PDE4B2 IC50
PDE4B (aa 152-484, Uniprot ID Q07343), sequence (Q07343 324-656): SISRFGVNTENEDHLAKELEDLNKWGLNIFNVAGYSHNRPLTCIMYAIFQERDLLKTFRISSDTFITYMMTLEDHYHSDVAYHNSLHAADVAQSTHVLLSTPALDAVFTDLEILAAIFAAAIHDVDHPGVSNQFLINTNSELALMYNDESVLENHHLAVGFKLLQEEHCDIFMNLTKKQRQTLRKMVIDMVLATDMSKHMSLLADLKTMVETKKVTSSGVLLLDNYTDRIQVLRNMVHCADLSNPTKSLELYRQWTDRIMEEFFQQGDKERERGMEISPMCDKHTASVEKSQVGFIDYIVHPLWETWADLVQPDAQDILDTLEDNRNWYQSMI
In short: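 PDE4B (aa 152-484, ~81.6 pM) preincubated ~10 min with compound, then 1 μM ³H/unlabeled cAMP added in Tris pH 7.5, 1.3 mM MgCl2, 0.004% Brij 35, ~2% DMSO; 30 min at RT. Product captured on SPA beads and counted; IC50 by four-parameter logistic fit.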

Row | Compound | IC50 (IL-13; Homo sapiens, PBMC) | IC50 (IL-4; Homo sapiens, PBMC) | IC50 (IFNγ; Homo sapiens, PBMC) | IC50 [1] | IC50 (IL-13) | IC50 (IL-4) | IC50 (IFNγ)
1 | COc1ccc(-c2nc(C3COB(O)C3)ns2)cc1OC1CC1 (single isomer, unassigned; enantiomer 2) [Example 181, (−) 4-(5-(3-cyclopropoxy-4-methoxyphenyl)-1,2,4-thiadiazol-3-yl)-1,2-oxaborolan-2-ol, enantiomer 2] | 1300 nM | 2.23 nM | 3.17 nM | 0.68 nM |  |  | 
2 | CCOc1cc(-c2nc(OC)cc(C3COB(O)C3)n2)ccc1OC (single isomer, unassigned; enantiomer 2) [Example 186, (−) 4-(2-(3-ethoxy-4-methoxyphenyl)-6-methoxypyrimidin-4-yl)-1,2-oxaborolan-2-ol, enantiomer 2] | 1400 nM | 31.4 nM | 5.13 nM | 4.43 nM |  |  | 
3 | CCOc1cc(-c2cncc(C3COB(O)C3)c2C)ccc1OC (single isomer, unassigned; enantiomer 2) [Example 189, 4-(5-(3-ethoxy-4-methoxyphenyl)-4-methylpyridin-3-yl)-1,2-oxaborolan-2-ol, enantiomer 2] |  |  | 1.46 nM | 2.61 nM | 1460 nM | 7.72 nM | 
4 | COc1ccc(-c2cncc(C3COB(O)C3)c2)cc1OC(C)C (single isomer, unassigned; enantiomer 2) [Example 190, 4-(5-(3-isopropoxy-4-methoxyphenyl)pyridin-3-yl)-1,2-oxaborolan-2-ol, enantiomer 2] |  |  |  | 1.43 nM | 1480 nM | 40.3 nM | 5.01 nM
5 | CCOc1c(OC)ccc(-c2cccc(C3COB(O)C3)c2)c1C#N (single isomer, unassigned; enantiomer 2) [Example 192, 3-ethoxy-3′-(2-hydroxy-1,2-oxaborolan-4-yl)-4-methoxy-[1,1′-biphenyl]-2-carbonitrile, enantiomer 2] | 1500 nM | 14.6 nM | 5.43 nM | 2.15 nM |  |  | 
6 | CCCOc1nc(-c2cncc(C3COB(O)C3)c2)c(F)cc1OC (single isomer, unassigned; enantiomer 2) [Example 208, (+) 4-(3-fluoro-5-methoxy-6-propoxy-[2,3′-bipyridin]-5′-yl)-1,2-oxaborolan-2-ol, enantiomer 2] |  |  |  | 0.22 nM | 1800 nM | 4.06 nM | 1.98 nM
7 | CCOc1cc(-c2cncc(C3COB(O)C3)c2)cc(F)c1OC (single isomer, unassigned; enantiomer 2) [Example 214, 4-(5-(3-ethoxy-5-fluoro-4-methoxyphenyl)pyridin-3-yl)-1,2-oxaborolan-2-ol, enantiomer 2] |  |  |  | 4.92 nM | 2000 nM | 20.7 nM | 13.7 nM
8 | COc1ccc(-c2cncc(C3COB(O)C3)c2)cc1OC (single isomer, unassigned; enantiomer 2) [Example 221, 4-(5-(3,4-dimethoxyphenyl)pyridin-3-yl)-1,2-oxaborolan-2-ol, enantiomer 2] |  |  |  | 2.21 nM | 2430 nM | 47.4 nM | 9.35 nM
9 | COc1ccc(-c2cncc(C3COB(O)C3)c2)cc1OCCO (single isomer, unassigned; enantiomer 2) [Example 228, (+) 4-(5-(3-(2-hydroxyethoxy)-4-methoxyphenyl)pyridin-3-yl)-1,2-oxaborolan-2-ol, enantiomer 2] |  |  |  | 6.32 nM | 2570 nM | 7.78 nM | 14.2 nM
10 | CCOc1cc(-c2cncc([C@H]3COB(O)C3)c2)ccc1OC [Example 2, (S)-4-(5-(3-ethoxy-4-methoxyphenyl)pyridin-3-yl)-1,2-oxaborolan-2-ol] | 1350 nM | 210 nM | 2.73 nM | 0.67 nM |  |  | 
11 | CCCOc1cc(-c2cncc(C3=CB(O)OC3)c2)ccc1OC [Example 25, 4-(5-(4-methoxy-3-propoxyphenyl)pyridin-3-yl)-1,2-oxaborol-2(5H)-ol] | 2320 nM | 67.8 nM | 9.17 nM | 2.4 nM |  |  | 
12 | CCCOc1cc(-c2cccc(C3(C)COB(O)C3)n2)ccc1OC (centres unmarked) [Example 29, 4-(6-(4-methoxy-3-propoxyphenyl)pyridin-2-yl)-4-methyl-1,2-oxaborolan-2-ol] | 3470 nM | 9.51 nM | 4.82 nM | 10.5 nM |  |  | 
13 | CCCOc1cc(-c2cc(C3CB(O)OC3C)cnn2)ccc1OC (centres unmarked) [Example 30, 4-(6-(4-methoxy-3-propoxyphenyl)pyridazin-4-yl)-5-methyl-1,2-oxaborolan-2-ol] | 10000 nM | 70.7 nM | 11.6 nM | 15.5 nM |  |  | 
14 | CCCOc1cc(-c2cncc(C3(CO)COB(O)C3)c2)ccc1OC (centres unmarked) [Example 31, 4-(hydroxymethyl)-4-(5-(4-methoxy-3-propoxyphenyl)pyridin-3-yl)-1,2-oxaborolan-2-ol] | 5730 nM | 3.92 nM | 2.96 nM | 4.2 nM |  |  | 
15 | CCOc1cc(-c2cncc(C3COB(O)C3)c2)ccc1OC (centres unmarked) [Example 33, 4-(5-(3-ethoxy-4-methoxyphenyl)pyridin-3-yl)-1,2-oxaborolan-2-ol] | 181 nM | 39.8 nM | 1.44 nM | 1.25 nM |  |  | 
16 | CCCOc1cc(-c2cncc(C3COB(O)C3)c2)ccc1OC (centres unmarked) [Example 34, 4-(5-(4-methoxy-3-propoxyphenyl)pyridin-3-yl)-1,2-oxaborolan-2-ol] | 309 nM | 14.3 nM | 1.39 nM | 0.52 nM |  |  | 
17 | COc1ccc(-c2cncc(C3COB(O)C3)c2)cc1OC(C)C (centres unmarked) [Example 35, 4-(5-(3-isopropoxy-4-methoxyphenyl)pyridin-3-yl)-1,2-oxaborolan-2-ol] | 230 nM | 6.98 nM | 1.55 nM | 1.17 nM |  |  | 
18 | COc1ccc(-c2cccc(C3COB(O)C3)c2)cc1OCCCF (centres unmarked) [Example 40, 4-(3′-(3-fluoropropoxy)-4′-methoxy-[1,1′-biphenyl]-3-yl)-1,2-oxaborolan-2-ol] | 175 nM | 29.2 nM | 1.28 nM | 0.37 nM |  |  | 
19 | CCOc1c(OC)ccc(-c2cncc(C3COB(O)C3)c2)c1C(F)F (centres unmarked) [Example 41, 4-(5-(2-(difluoromethyl)-3-ethoxy-4-methoxyphenyl)pyridin-3-yl)-1,2-oxaborolan-2-ol] | 397 nM | 6.2 nM | 1.87 nM | 6.85 nM |  |  | 

More lines, in order of falling IC50 [1], values ahead:

Row | IC50 (IL-13; Homo sapiens, PBMC) | IC50 (IL-4; Homo sapiens, PBMC) | IC50 (IFNγ; Homo sapiens, PBMC) | IC50 [1] | IC50 (IL-13) | IC50 (IL-4) | IC50 (IFNγ) | Compound
20 | 10000 nM | 1670 nM | 3300 nM | 399 nM |  |  |  | CCCOc1cc(-c2cccc(C3CCOB(O)C3)n2)ccc1OC (centres unmarked) [Example 26, 4-(6-(4-methoxy-3-propoxyphenyl)pyridin-2-yl)-1,2-oxaborinan-2-ol]
21 | 10000 nM | 3790 nM | 209 nM | 73.4 nM |  |  |  | CCCOc1cc(-c2cccc(C3COB(O)C3C)n2)ccc1OC (centres unmarked) [Example 27, 4-(6-(4-methoxy-3-propoxyphenyl)pyridin-2-yl)-3-methyl-1,2-oxaborolan-2-ol]
22 | 2250 nM | 64 nM | 8.47 nM | 13 nM |  |  |  | COc1ccc(-c2cncc(C3COB(O)C3)c2)cc1OC (centres unmarked) [Example 32, 4-(5-(3,4-dimethoxyphenyl)pyridin-3-yl)-1,2-oxaborolan-2-ol]
23 | 8010 nM | 1040 nM | 201 nM | 10.8 nM |  |  |  | CCCOc1cc(-c2cccc(C3=C(C)B(O)OC3)n2)ccc1OC [Example 28, 4-(6-(4-methoxy-3-propoxyphenyl)pyridin-2-yl)-3-methyl-1,2-oxaborol-2(5H)-ol]
24 | 2380 nM | 21.2 nM | 4.36 nM | 3.79 nM |  |  |  | CCCOc1cc(-c2nc(OC)cc(C3COB(O)C3)n2)ccc1OC (single isomer, unassigned; enantiomer 2) [Example 225, (−) 4-(6-methoxy-2-(4-methoxy-3-propoxphenyl)pyrimidin-4-yl)-1,2-oxaborolan-2-ol, enantiomer 2]
25 | 1840 nM | 27.8 nM | 1.83 nM | 2.95 nM |  |  |  | COc1ccc(-c2cc(C3COB(O)C3)ccn2)cc1OC1CCCC1 (single isomer, unassigned; enantiomer 2) [Example 211, 4-(2-(3-(cyclopentyloxy)-4-methoxyphenyl)pyridin-4-yl)-1,2-oxaborolan-2-ol, enantiomer 2]
26 | 182 nM | 13.8 nM | 1.82 nM | 1.63 nM |  |  |  | COc1ccc(-c2cncc(C3COB(O)C3)c2)cc1OCCF (centres unmarked) [Example 39, 4-(5-(3-(2-fluoroethoxy)-4-methoxyphenyl)pyridin-3-yl)-1,2-oxaborolan-2-ol]
27 | 165 nM | 3.54 nM | 0.7 nM | 1.14 nM |  |  |  | CCOc1cc(-c2cncc([C@@H]3COB(O)C3)c2)ccc1OC [Example 3, (R)-4-(5-(3-ethoxy-4-methoxyphenyl)pyridin-3-yl)-1,2-oxaborolan-2-ol]
28 | 476 nM | 5.25 nM | 1.27 nM | 0.98 nM |  |  |  | COc1ccc(-c2cncc(C3COB(O)C3)c2)cc1OC1CC1 (centres unmarked) [Example 36, 4-(5-(3-cyclopropoxy-4-methoxyphenyl)pyridin-3-yl)-1,2-oxaborolan-2-ol]
29 | 2390 nM | 36.3 nM | 4.04 nM | 0.93 nM |  |  |  | CCCOc1cc(-c2cncc([C@H]3COB(O)C3)c2)ccc1OC [Example 5, (S)-4-(5-(4-methoxy-3-propoxyphenyl)pyridin-3-yl)-1,2-oxaborolan-2-ol]
